The target in assay [1] is T1, hSTING-R232 (Homo sapiens, UniProt Q86WV6, H232R).
T1 construct: host or cells: 293-Dual (HEK293-derived) reporter cells
Put plainly: ISG reporter induction in 293-Dual hSTING-R232 reporter cells (QUANTI-Blue). Conditions: 293-Dual hSTING-R232 cells, overnight incubation. The class given is cell-based. How it is done:
(§1) Certain STING compounds of the disclosure were evaluated in an in vitro cell based assay.
(§2) 293-Dual hSTING-R232 and mSTING cells (Invivogen) were seeded at 25,000 cells/well (50 ul) and co-cultured with STING agonists (2× concentration, 50 ul) in clear, half-area, 96-well polystyrene plates. Cells and test samples were prepared in DMEM supplemented with 10% FBS, Glutamax, and PenStrep. After overnight incubation at 37 C in a CO2 incubator, 20 ul of supernatant was added to QUANTI-Blue detection reagent (Invivogen). After one hour incubation at 37 C, plates were read at 640/650 nm on EnVision plate reader (PerkinElmer). OD values were plotted by log(agonist) vs. response, variable slope, four parameter curve fit (Log transform) using GraphPad Prism software to determine EC50 values.

The target in assay [2] is T2, mSTING (Mus musculus, UniProt Q3TBT3).
T2 construct: host or cells: 293-Dual (HEK293-derived) reporter cells
T2 sequence (Q3TBT3 1-378): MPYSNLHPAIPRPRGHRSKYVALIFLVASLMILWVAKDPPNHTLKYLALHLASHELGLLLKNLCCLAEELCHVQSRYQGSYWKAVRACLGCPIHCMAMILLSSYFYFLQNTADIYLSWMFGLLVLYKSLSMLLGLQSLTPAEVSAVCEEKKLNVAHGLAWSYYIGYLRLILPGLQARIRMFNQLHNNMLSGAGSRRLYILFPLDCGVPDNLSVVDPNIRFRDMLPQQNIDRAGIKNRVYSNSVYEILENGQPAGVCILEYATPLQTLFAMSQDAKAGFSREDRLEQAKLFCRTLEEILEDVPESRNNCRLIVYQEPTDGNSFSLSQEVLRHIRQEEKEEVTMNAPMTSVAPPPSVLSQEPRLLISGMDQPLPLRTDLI
Put plainly: ISG reporter induction in 293-Dual mSTING reporter cells (QUANTI-Blue). Conditions: 293-Dual mSTING cells, overnight incubation. The class given is cell-based. How it is done: as §1, §2

Assay [3] concerns the target hSTING WT (Homo sapiens, UniProt Q86WV6). Put plainly: Thermal shift assay (DSF). The class given is binding. Conditions: compound at 3.12 uM. Further details: unit not given here. An excerpt:
Thermal shift assay experimental methods were followed based on the published methods described in Ramanjulu et al. Nature, 2018, 564, 439.

SMILES strings stand for the structures. pEC50: −log10 of the molar value. Some results are limits rather than exact numbers.

T1 sequence (Q86WV6 whole entry H232R): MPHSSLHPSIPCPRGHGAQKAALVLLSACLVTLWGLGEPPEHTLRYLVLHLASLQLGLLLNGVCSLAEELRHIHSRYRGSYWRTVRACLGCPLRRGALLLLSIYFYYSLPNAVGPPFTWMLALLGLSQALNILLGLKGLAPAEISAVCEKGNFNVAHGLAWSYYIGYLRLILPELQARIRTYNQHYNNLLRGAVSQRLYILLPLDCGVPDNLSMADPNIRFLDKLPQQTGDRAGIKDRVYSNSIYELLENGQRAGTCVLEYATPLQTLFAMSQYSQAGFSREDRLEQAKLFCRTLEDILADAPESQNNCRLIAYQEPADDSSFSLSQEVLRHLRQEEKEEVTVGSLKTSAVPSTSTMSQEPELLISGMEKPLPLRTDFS
hSTING WT, sequence (Q86WV6 155-341 H232R limits assumed): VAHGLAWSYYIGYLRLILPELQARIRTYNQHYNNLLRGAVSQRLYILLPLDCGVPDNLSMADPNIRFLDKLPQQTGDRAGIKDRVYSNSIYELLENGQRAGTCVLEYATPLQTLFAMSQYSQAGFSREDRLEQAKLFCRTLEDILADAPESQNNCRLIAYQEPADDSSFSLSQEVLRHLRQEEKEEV

One may read the pEC50 as −log10 of the EC50, conventionally taken in molar units. On to `COc1cc2cc(C(=O)CCC(=O)O)ccc2cc1OCCCOc1c(OC)cc2sc(C(=O)CC(C)(C)C(=O)O)cc2c1F` [Compound 22], for which the negative logarithm of the EC50 (pEC50) in assay [1] and in assay [2] was less than 6.82 throughout.

As to `COc1cc2sc(C(=O)CC(C)(C)C(=O)O)cc2c(C)c1OCCCOc1c(OC)cc2sc(C(=O)CP(=O)(O)O)cc2c1C` [Compound 34], the pEC50 in assay [1] and in assay [2] was less than 6.82 throughout.

For `COc1cc2sc(CCP(=O)(O)O)cc2c(F)c1OCCCOc1c(OC)cc2sc(C(=O)CC(C)(C)C(=O)O)cc2c1F` [Compound 19], the negative-log EC50 (pEC50) in assay [1] and in assay [2] was less than 6.82 in each case.

As to `COc1cc2sc(C(=O)CCC(=O)O)cc2c(F)c1OCCCOc1c(OC)cc2sc(C(=O)CP(=O)(O)O)cc2c1F` [Compound 20], the pEC50 in assay [1] and in assay [2] was not below 7.30 each time.

For the compound `COc1cc2sc(C(=O)CC(C)(C)C(=O)O)cc2c(F)c1OCCCOc1ccc2cc(C(=O)CCC(=O)O)ccc2c1F` [Compound 15, 4-(5-(3-((6-(3-Carboxypropanoyl)-1-fluoronaphthalen-2-yl)oxy)propoxy)-4-fluoro-6-methoxybenzo[b]thiophen-2-yl)-2,2-dimethyl-4-oxobutanoic acid], the negative logarithm of the EC50 (pEC50) in assay [1] and in assay [2] was less than 6.82 throughout.

Take `COC(=O)C(C)(C)CC(=O)c1cc2c(F)c(OCCCOc3c(OC)cc4sc(C(=O)CS(=O)(=O)O)cc4c3F)c(OC)cc2s1` [Compound 2, 2-(4-Fluoro-5-(3-((4-fluoro-6-methoxy-2-(4-methoxy-3,3-dimethyl-4-oxobutanoyl)benzo[b]thiophen-5-yl)oxy)propoxy)-6-methoxybenzo[b]thiophen-2-yl)-2-oxoethane-1-sulfonic acid]: the figures for the pEC50 in assay [1] and in assay [2] were less than 6.82 and 6.82 to 7.30, respectively.

On to `COc1cc2sc(C(=O)CCS(=O)(=O)O)cc2c(F)c1OCCCOc1c(OC)cc2sc(C(=O)CC(C)(C)C(=O)O)cc2c1F` [Compound 14, 4-(4-fluoro-5-(3-((4-fluoro-6-methoxy-2-(3-sulfopropanoyl)benzo[b]thiophen-5-yl)oxy)propoxy)-6-methoxybenzo[b]thiophen-2-yl)-2,2-dimethyl-4-oxobutanoic acid], for which the figures for the negative-log EC50 (pEC50) in assay [1] and in assay [2] were less than 6.82 and not below 7.30, respectively.

Take `COc1cc2sc(C(=O)CC(C)(C)C(=O)O)cc2c(F)c1OCCCOc1ccc2cc(C(=O)CCC(=O)O)ccc2c1` [Compound 13, 4-(5-(3-((6-(3-Carboxypropanoyl)naphthalen-2-yl)oxy)propoxy)-4-fluoro-6-methoxybenzo[b]thiophen-2-yl)-2,2-dimethyl-4-oxobutanoic acid]: the pEC50 in assay [1] and in assay [2] was 6.82 to 7.30 in each case.

Take `COc1cc2sc(C(=O)CC(C)(C)C(=O)O)cc2c(F)c1OCCCOc1c(OC)cc2sc(C(=O)CC(C)(C)P(=O)(O)O)cc2c1F` [Compound 9, 4-(4-Fluoro-5-(3-((4-fluoro-6-methoxy-2-(3-methyl-3-phosphonobutanoyl)benzo[b]thiophen-5-yl)oxy)propoxy)-6-methoxybenzo[b]thiophen-2-yl)-2,2-dimethyl-4-oxobutanoic acid]: the pEC50 in assay [1] and in assay [2] was less than 6.82 in each case.

Turning to `COC(=O)C(C)(C)CC(=O)c1cc2c(F)c(OCCCOc3c(OC)cc4sc(C(=O)CP(=O)(OC)OC)cc4c3F)c(OC)cc2s1` [Compound 3, Methyl 4-(5-(3-((2-(2-(dimethoxyphosphoryl)acetyl)-4-fluoro-6-methoxybenzo[b]thiophen-5-yl)oxy)propoxy)-4-fluoro-6-methoxybenzo[b]thiophen-2-yl)-2,2-dimethyl-4-oxobutanoate], the pEC50 in assay [1] and in assay [2] was less than 6.82 in each case.

`COc1cc2sc(C(=O)CC(C)(C)C(=O)O)cc2c(F)c1OCCCOc1c(OC)cc2sc(C3CC3CC(=O)O)cc2c1F` (stereo not drawn) [Compound 12, 4-(5-(3-((2-(2-(carboxymethyl)cyclopropyl)-4-fluoro-6-methoxybenzo[b]thiophen-5-yl)oxy)propoxy)-4-fluoro-6-methoxybenzo[b]thiophen-2-yl)-2,2-dimethyl-4-oxobutanoic acid]: the pEC50 in assay [1] is less than 6.82; in assay [2], 6.82 to 7.30.

As to `COc1cc2cc(C(=O)CCC(=O)O)ccc2c(F)c1OCCCOc1c(OC)cc2sc(C(=O)CC(C)(C)C(=O)O)cc2c1F` [Compound 16, 4-(5-(3-((6-(3-Carboxypropanoyl)-1-fluoro-3-methoxynaphthalen-2-yl)oxy)propoxy)-4-fluoro-6-methoxybenzo[b]thiophen-2-yl)-2,2-dimethyl-4-oxobutanoic acid], the pEC50 in assay [1] and in assay [2] was less than 6.82 each time.

With `COC(=O)C(C)(C)CC(=O)c1cc2c(F)c(OCCCOc3c(OC)cc4sc(C(=O)CC(C)(C)P(=O)(O)O)cc4c3F)c(OC)cc2s1` [Compound 10], the pEC50 in assay [1] and in assay [2] was less than 6.82 throughout.

Regarding `COc1cc2nc(C(=O)CCC(=O)O)ccc2c(F)c1OCCCOc1c(OC)cc2sc(C(=O)CC(C)(C)C(=O)O)cc2c1F` [Compound 23, 4-(5-(3-((2-(3-Carboxypropanoyl)-5-fluoro-7-methoxyquinolin-6-yl)oxy)propoxy)-4-fluoro-6-methoxybenzo[b]thiophen-2-yl)-2,2-dimethyl-4-oxobutanoic acid], the pEC50 in assay [1] and in assay [2] was not below 7.30 throughout.

For the compound `COc1cc2sc(/C=C/CC(=O)O)cc2c(F)c1OCCCOc1c(OC)cc2sc(/C=C/CC(=O)O)cc2c1F` [Compound 33], the pEC50 in assay [1] and in assay [2] was less than 6.82 each time.

Consider `COc1cc2sc(/C=C/CC(=O)O)cc2c(F)c1OCCCOc1c(OC)cc2sc(C(=O)CC(C)(C)C(=O)O)cc2c1F` [Compound 11, (E)-4-(5-(3-((2-(3-carboxy-3-methylbutanoyl)-4-fluoro-6-methoxybenzo[b]thiophen-5-yl)oxy)propoxy)-4-fluoro-6-methoxybenzo[b]thiophen-2-yl)but-3-enoic acid], for which the pEC50 in assay [1] and in assay [2] was not below 7.30 throughout.

In the case of `COc1cc2sc(C(=O)CCP(=O)(O)O)cc2c(F)c1OCCCOc1c(OC)cc2sc(C(=O)CC(C)(C)C(=O)O)cc2c1F` [Compound 21], the pEC50 in assay [1] was less than 6.82; in assay [2], not below 7.30.

Take `COc1cc2sc(C(=O)CC(C)(C)C(=O)O)cc2c(F)c1OCCCOc1c(OC)cc2sc(C(=O)CP(=O)(OC)OC)cc2c1F` [Compound 4, 4-(5-(3-((2-(2-(Dimethoxyphosphoryl)acetyl)-4-fluoro-6-methoxybenzo[b]thiophen-5-yl)oxy)propoxy)-4-fluoro-6-methoxybenzo[b]thiophen-2-yl)-2,2-dimethyl-4-oxobutanoic acid]: the values for the negative-log EC50 (pEC50) in assay [1] and in assay [2] were less than 6.82 and 6.82 to 7.30, respectively.

On to `COc1cc2sc(/C=C/CC(=O)O)cc2c(F)c1OCCCOc1c(OC)cc2sc(C(=O)CP(=O)(O)O)cc2c1F` [Compound 32], for which the negative logarithm of the EC50 (pEC50) in assay [1] was 6.82 to 7.30; in assay [2] it was less than 6.82.

Regarding `COc1cc2sc(C(=O)CC(C)(C)C(=O)O)cc2c(F)c1OCCCOc1c(OC)cc2sc(C(=O)CC(C)(C)C(=O)NCCN)cc2c1F` [Compound 18], the negative-log EC50 (pEC50) in assay [1] and in assay [2] was less than 6.82 in each case.

Turning to `COC(=O)C(C)(C)CC(=O)c1cc2c(F)c(OCCCOc3c(OC)cc4sc(C(=O)CP(=O)(O)O)cc4c3F)c(OC)cc2s1` [Compound 5, (2-(4-Fluoro-5-(3-((4-fluoro-6-methoxy-2-(4-methoxy-3,3-dimethyl-4-oxobutanoyl)benzo[b]thiophen-5-yl)oxy)propoxy)-6-methoxybenzo[b]thiophen-2-yl)-2-oxoethyl)phosphonic acid], the pEC50 in assay [1] and in assay [2] was 6.82 to 7.30 each time. Further, in assay [3], the “hSTING WT DSF (delta TmD @ 3.12 uM)” value was −0.1.

For `COc1cc2sc(C(=O)CC(C)(C)C(=O)O)cc2c(F)c1OCCCOc1c(OC)cc2sc(C(=O)CC(C)(C)C(=O)NS(=O)(=O)CCN)cc2c1F` [Compound 17, 4-(5-(3-((2-(4-((2-Aminoethyl)sulfonamido)-3,3-dimethyl-4-oxobutanoyl)-4-fluoro-6-methoxybenzo[b]thiophen-5-yl)oxy)propoxy)-4-fluoro-6-methoxybenzo[b]thiophen-2-yl)-2,2-dimethyl-4-oxobutanoic acid], the negative-log EC50 (pEC50) in assay [1] and in assay [2] was less than 6.82 throughout.
